Results on nine compounds are retold here after PubChem BioAssay (NCI).

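Dose response: 5 concentrations. Exposure: 48 h. Format: 96-well plates. Endpoint: linear interpolation; highest concentration if not reached. TGI: concentration producing complete growth inhibition.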 Bounds are passed on as bounds.

Test systems include SF-539 CNS; DU-145 prostate; M14 melanoma; HCC-2998 colon; SNB-75 CNS; MCF7 breast; EKVX NSCLC; K-562 leukemia; SN12C renal; MDA-N; LOX IMVI melanoma; NCI/ADR-RES ovarian; 786-0 renal; SK-MEL-28 melanoma; SW-620 colon; OVCAR-5 ovarian; MDA-MB-231 breast; T-47D breast.
Assay in all cases: DTP human tumour cell line panel, 48 h

For the compound `CSC(=NCCN=C(NS(=O)(=O)c1ccc(Cl)cc1)SC)NS(=O)(=O)c1ccc(Cl)cc1`, the TGI in the experiment on SF-539 CNS is more than 100 µM; in the experiment with DU-145 prostate, more than 100 µM; with M14 melanoma, more than 100 µM; in the experiment on HCC-2998 colon, more than 100 µM; in the experiment on SNB-75 CNS it was 51.3 µM; in the experiment on MCF7 breast, more than 100 µM. Moreover, the TGI in the experiment with EKVX NSCLC, in the experiment on K-562 leukemia, in the experiment on SN12C renal, in the experiment on MDA-N, in the experiment with LOX IMVI melanoma and with NCI/ADR-RES ovarian was more than 100 µM in each case. The TGI in the experiment with 786-0 renal, with SK-MEL-28 melanoma, in the experiment on SW-620 colon, in the experiment on OVCAR-5 ovarian and with MDA-MB-231 breast was more than 100 µM throughout.
With `CC1(C)CCc2c(c(N=Nc3ccccc3)c3ccccc3c2O)O1`, the TGI with SF-539 CNS is 69.6 µM; in the experiment on DU-145 prostate it was 83 µM; in the experiment on M14 melanoma, 88.8 µM; in the experiment with MCF7 breast, 47 µM; with EKVX NSCLC, 59.5 µM; in the experiment on K-562 leukemia it was more than 100 µM. The TGI in the experiment on SN12C renal is 40.1 µM; in the experiment with MDA-N it was 41.7 µM; in the experiment on LOX IMVI melanoma, 54 µM; with NCI/ADR-RES ovarian, more than 100 µM; with T-47D breast, more than 100 µM; in the experiment on 786-0 renal, 30.8 µM. Further, the TGI is more than 100 µM in the experiment with SK-MEL-28 melanoma, more than 100 µM in the experiment on SW-620 colon, more than 100 µM with OVCAR-5 ovarian and 67 µM in the experiment on MDA-MB-231 breast.
As to `CCOC(=O)CCC(NC(=O)OCc1ccccc1)C(=O)NC(CCC(=O)OCC)C(=O)NC(CCC(=O)OCC)C(=O)NC(CCC(=O)OCC)C(=O)NC(CCC(=O)OCC)C(=O)OCC` (centres undefined), the TGI in the experiment with DU-145 prostate, in the experiment with M14 melanoma, in the experiment on SNB-75 CNS, in the experiment on MCF7 breast, with EKVX NSCLC and with SN12C renal was more than 100 µM in each case. The TGI in the experiment on MDA-N, in the experiment with LOX IMVI melanoma, with NCI/ADR-RES ovarian, in the experiment with T-47D breast, in the experiment on 786-0 renal and in the experiment on SK-MEL-28 melanoma was more than 100 µM in each case. In addition, the TGI in the experiment with SW-620 colon and in the experiment with OVCAR-5 ovarian was more than 100 µM throughout.
In the case of `COc1nc(=O)n(C2CC(N=[N+]=[N-])C(CO)O2)cc1C` (centres undefined), the TGI in the experiment on SF-539 CNS, with DU-145 prostate, in the experiment on M14 melanoma, in the experiment on MCF7 breast, with EKVX NSCLC and in the experiment on K-562 leukemia was more than 100 µM throughout. Also, the total growth inhibition concentration (TGI) with SN12C renal, with MDA-N, with LOX IMVI melanoma, in the experiment with NCI/ADR-RES ovarian, in the experiment on T-47D breast and with 786-0 renal was more than 100 µM throughout. Further, the TGI with SK-MEL-28 melanoma, in the experiment on SW-620 colon, with OVCAR-5 ovarian and with MDA-MB-231 breast was more than 100 µM each time.
Turning to `S=C1C=C(c2ccccc2)Sc2ccccc2N1`, the TGI with DU-145 prostate, with M14 melanoma, in the experiment with SNB-75 CNS, in the experiment with MCF7 breast, in the experiment with EKVX NSCLC and in the experiment on K-562 leukemia was more than 100 µM in each case. The TGI in the experiment with SN12C renal, with MDA-N, in the experiment with LOX IMVI melanoma, in the experiment with NCI/ADR-RES ovarian, with T-47D breast and with 786-0 renal was more than 100 µM in each case. In addition, the TGI with SK-MEL-28 melanoma, in the experiment on OVCAR-5 ovarian and in the experiment with MDA-MB-231 breast was more than 100 µM each time.
In the case of `CSCCCCCCCCCCOc1ccc(C=C2C(=C(C#N)C#N)c3ccccc3C2=C(C#N)C#N)cc1`, the TGI with SF-539 CNS was 37.3 µM; in the experiment with DU-145 prostate, 28.9 µM; in the experiment with M14 melanoma it was 32.1 µM; with MCF7 breast it was 32.3 µM; with EKVX NSCLC, 34.5 µM; with K-562 leukemia it was more than 100 µM. The total growth inhibition concentration (TGI) in the experiment on MDA-N came out at 38.3 µM; with LOX IMVI melanoma, 61.7 µM; in the experiment on NCI/ADR-RES ovarian, 75.7 µM; with T-47D breast it was 51.4 µM; in the experiment on 786-0 renal, 37.4 µM; in the experiment with SK-MEL-28 melanoma, 29.6 µM. In addition, the TGI in the experiment on SW-620 colon was determined as 37.8 µM; in the experiment with OVCAR-5 ovarian it was 30.2 µM; with MDA-MB-231 breast, 35.7 µM.
Take `CC12ON=C(c3ccccc3)N1C=CN1C(c3ccccc3)=NOC12` (centres undefined): the total growth inhibition concentration (TGI) with SF-539 CNS, with DU-145 prostate, in the experiment with M14 melanoma, with HCC-2998 colon, in the experiment on SNB-75 CNS and in the experiment on MCF7 breast was more than 100 µM in each case. Moreover, the TGI in the experiment on EKVX NSCLC, in the experiment on MDA-N, with LOX IMVI melanoma, in the experiment with NCI/ADR-RES ovarian, with 786-0 renal and in the experiment on OVCAR-5 ovarian was more than 100 µM throughout. In addition, the TGI with MDA-MB-231 breast was more than 100 µM.
As to `CC(C)(C)OC(=O)NC(Cc1ccc([N+](=O)[O-])cc1)C(=O)NC(CCCCNC(=O)OCc1ccccc1)C(=O)ON1C(=O)CCC1=O` (centres undefined), the TGI in the experiment with SF-539 CNS was more than 100 µM; in the experiment with DU-145 prostate, more than 100 µM; with M14 melanoma it was more than 100 µM; in the experiment on HCC-2998 colon it was 79.4 µM; in the experiment on SNB-75 CNS, more than 100 µM; with MCF7 breast, more than 100 µM. For the same compound, the TGI is more than 100 µM in the experiment on EKVX NSCLC; 73.1 µM with K-562 leukemia; more than 100 µM with SN12C renal; more than 100 µM with MDA-N; more than 100 µM in the experiment with LOX IMVI melanoma; more than 100 µM with NCI/ADR-RES ovarian. Besides, the TGI with 786-0 renal, with SK-MEL-28 melanoma, in the experiment with SW-620 colon, in the experiment with OVCAR-5 ovarian and with MDA-MB-231 breast was more than 100 µM throughout.
For `CC(C)(C)C=C=C(C(C)(C)C)P(=O)(O)O`, the concentration for total growth inhibition (TGI) with SF-539 CNS, in the experiment with DU-145 prostate, in the experiment on M14 melanoma, in the experiment on HCC-2998 colon, with SNB-75 CNS and in the experiment with EKVX NSCLC was more than 100 µM throughout. For the same compound, the TGI in the experiment with K-562 leukemia, with SN12C renal, with MDA-N, in the experiment on LOX IMVI melanoma, with NCI/ADR-RES ovarian and in the experiment on T-47D breast was more than 100 µM throughout. For the same compound, the TGI with 786-0 renal, with SK-MEL-28 melanoma, in the experiment on SW-620 colon and in the experiment on OVCAR-5 ovarian was more than 100 µM in each case.
